Reference: US20120003661A1, “METHODS AND DEVICES FOR THE SELECTIVE DETECTION OF MICROORGANISMS” (C3 JIAN, INC., priority 2010, published 2012)
“Also recorded” adds a separate entry of the source.

system: bacteria, fungi, and/or yeasts; assay type: binding; settings: microorganism(s) listed as target(s) of the targeting peptide; wrapped target lists given cell by cell

Substance	Target(s)
Rv2369c (VRQVPVDRPESRHQKPGDVPRDPRC)	C. albicans
1T-287 (KGYPLPFQYRLNNH)	P. gingivalis, T. denticola, S. gordonii,; also recorded: S. mitis, S. mutans, S. oralis,; also recorded: S. salivarious, S. sanguinis
PF-146 (GCGKRRIITKSASRDTR)	S. epidermidis, M. luteus, P. aeruginosa,; also recorded: C. albicans, MRSA,; also recorded: C. jeikeium
Rv2561 (QHQCPGMRPAPADAPEVPHAARADQKRPSLRL)	C. albicans
PF-053 (KLFGQWGPELGSIYILPALIGSIILIAIVTLILRAMRK)	S. epidermidis, M. luteus, E. coli,; also recorded: P. aeruginosa, C. albicans,; also recorded: MRSA, S. pneumoniae, E. faecalis
PF-104 (ERTAVNDLWI)	MRSA, C. jeikeium
PF-028 (ALDCSEQSVILWYETILDKIVGVIK)	S. epidermidis, M. luteus, MRSA
1T-263 (FIAVSFTGNPATFKLVIGCKADN)	A. naeslundii, F. nucleatum, P. gingivalis,; also recorded: S. epidermidis, S. gordonii,; also recorded: S. mitis, S. oralis, S. salivarious,; also recorded: S. sanguinis
PF-009 (SKKYNHILNQENR)	yeast and hyphal forms; also recorded: M. luteus, P. mirabilis, C. albicans
1T-269 (PLYVAAVEKINTAKKH)	F. nucleatum, S. mutans, S. oralis,; also recorded: S. sanguinis
TT-309 (EPLPLTKYDKKDTEMKKVFKEILAGKVGYEKEEE)	F. nucleatum
PF-099 (EIIAYLEGRFANA)	S. epidermidis, M. luteus, E. coli,; also recorded: C. jeikeium
1T-257 (IILAKAADLAEIERIISEDPFKINEIANYDIIEFCPTKSSKAFEKVLK)	A. naeslundii, F. nucleatum, P. gingivalis,; also recorded: S. epidermidis, S. gordonii,; also recorded: S. mitis, S. mutans, S. oralis,; also recorded: S. salivarious, S. sanguinis
TT-308 (GLVIIPNLIALIILFSQVRQQTKDYFSNPKLSSR)	F. nucleatum
PF-065 (LEKNTRDNYFIHAIDRIYINTSKGLFPESELVAWG)	M. luteus, E. coli, P. aeruginosa,; also recorded: C. albicans, MRSA, S. pneumoniae,; also recorded: C. jeikeium, C. jejuni
1T-275 (QVLKNFSISRRYKINNPFFKILLFIQLRTL)	A. naeslundii, F. nucleatum, P. gingivalis,; also recorded: T. denticola, S. epidermidis,; also recorded: S. gordonii, S. mitis,; also recorded: S. mutans, S. oralis, S. salivarious,; also recorded: S. sanguinis
PF-636 (LVRLA)	C. albicans hyphae
PF-151 (EEYPARVPLSGEDVTEARRH)	S. epidermidis, MRSA, E. faecalis,; also recorded: C. jeikeium

same assay, conditions: microorganism(s) that the targeting peptide binds, as listed in Table 2

Substance	Target(s)
PF-C180 (TVEELDKAFTWGAAAALAIGVIAINVGLAAGYCYNNNDVF)	F. nucleatum, P. gingivalis, S. mutans,; also recorded: T. denticola
PF-C136 (LILSYQASVYPLFAYLCQQKDY)	A. naeslundii, F. nucleatum, P. gingivalis,; also recorded: S. mutans, T. denticola
PF-C085 (KKFKIFVIINWFYHKYIILNFEENF)	A. naeslundii, F. nucleatum, P. gingivalis,; also recorded: S. mutans, T. denticola
PF-S029 (TSDTQSQSPWLFDNADIVNIYPVQLMHSSDND)	M. luteus, P. mirabilis, E. coli, C. albicans,; also recorded: C. jeikeium, C. jejuni
PF-C075 (KALVISVFAIVFSIIFVKFFYWRDKK)	A. naeslundii, F. nucleatum, P. gingivalis,; also recorded: S. mutans, T. denticola
PF-787 (MTERQRRALLKQHPEVVSWSDYLEKRKRRTGTAG)	Mycobacteria spp.
PF-C008 (AQPRRTWLVNFGEVPSPGLTNDGMPDH)	A. naeslundii
PF-C034 (HPMPITVRSRKPGPLTAPSEH)	S. mutans, E. coli
PF-795 (ALHKSGIQVIADWVPDQIYN)	S. mutans
PF-790 (PAGPDHLDQRDHR)	Mycobacteria spp.
PF-C091 (ASNTPRFVRLTLFNFYSKIWNVTHLFLFNNL)	A. naeslundii, F. nucleatum, P. gingivalis,; also recorded: S. mutans, T. denticola
PF-794 (NLYFENQGN)	S. mutans
PF-C061 (TLNYKKMFFSVIFLLGLNYLICNSPLFFKQIEF)	A. naeslundii, F. nucleatum, P. gingivalis,; also recorded: S. mutans, T. denticola
PF-C003 (FCSVDHDVITIAADHVKQGAEA)	A. naeslundii, P. gingivalis, S. mutans

same assay, conditions: microorganism(s) the targeting peptide binds, as listed in Table 2

Substance	Target(s)
1T-200 (MRFKRFDRDYALSGDNVFEVLTASCDVIERNLSYREMCGLMQ)	A. naeslundii, F. nucleatum, S. epidermidis,; also recorded: S. gordonii, S. mitis,; also recorded: S. mutans, S. oralis, S. salivarious,; also recorded: S. sanguinis
1T-131 (DEVWKMLGI)	A. naeslundii, F. nucleatum, P. gingivalis,; also recorded: T. denticola, S. gordonii,; also recorded: S. mitis, S. mutans, S. oralis,; also recorded: S. salivarious, S. sanguinis
1T-28 (VSRDEAMEFIDREWTTLQPAGKSHA)	P. aeruginosa
1T-150 (YINRRLKKAFSDADIKEAPAEFYEELRRVQYV)	A. naeslundii, F. nucleatum, P. gingivalis,; also recorded: T. denticola, S. gordonii,; also recorded: S. mitis, S. mutans, S. oralis,; also recorded: S. salivarious, S. sanguinis
1T-190 (IQIIVNAFVEKDKTGAVIEVLYASNNHEKVKAKYEELVAIS)	A. naeslundii, F. nucleatum, P. gingivalis,; also recorded: S. epidermidis, S. gordonii,; also recorded: S. mitis, S. mutans, S. oralis,; also recorded: S. salivarious, S. sanguinis
1T-116 (MILHRRRDR)	A. naeslundii, P. gingivalis, S. epidermidis,; also recorded: S. gordonii, S. mitis,; also recorded: S. mutans, S. oralis, S. salivarious,; also recorded: S. sanguinis
1T-140 (IKGTIAFVGEDYVEIRVDKGVKLTFRKSAIANVINNNQQ)	A. naeslundii, F. nucleatum, P. gingivalis,; also recorded: S. epidermidis, S. gordonii,; also recorded: S. mitis, S. mutans, S. oralis,; also recorded: S. salivarious, S. sanguinis
1T-4 (LDAYGELVGGN)	L. casei; also recorded: S. mutans, S. gordonii, S. sanguinis,; also recorded: S. oralis, V. atypica,
1T-72 (EPTDGVACKER)	P. aeruginosa
1T-55 (NHKTLKEWKAKWGPEAVESWATLLG)	C. xerosis, P. aeruginosa
1T-49 (SLVRIHDQQPWVTRGAFIDAARTCS)	S. aureus, S. epidermidis, C. jeikeium,; also recorded: P. aeruginosa
1T-110 (LAAKTAVCVGRAFM)	A. naeslundii, P. gingivalis, S. epidermidis,; also recorded: S. gordonii, S. mitis,; also recorded: S. mutans, S. oralis, S. sanguinis
1T-228 (IFKLFEEHLLYLLDAFYYSKIFRRLKQGLYRRKEQPYTQDLFRM)	A. naeslundii, F. nucleatum, P. gingivalis,; also recorded: S. epidermidis, S. gordonii,; also recorded: S. mitis, S. mutans, S. oralis,; also recorded: S. salivarious, S. sanguinis
1T-155 (LKLAFGVYPFQAMSQSDTAVSERNVLWR)	A. naeslundii, F. nucleatum, P. gingivalis,; also recorded: S. epidermidis, S. gordonii,; also recorded: S. mitis, S. mutans, S. oralis,; also recorded: S. salivarious, S. sanguinis
